For this test, the target named is T1, Autotaxin (Homo sapiens, UniProt Q13822).
T1 construct: from tissue; host or cells: pooled human plasma
Description: LPA formation in pooled human plasma (ex vivo autotaxin inhibition). The note with it: 2 hours incubation. The class given is biochemical. An outline of the steps:
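Ex vivo: LPA 18:2 and 20:4 levels in compound-treated versus untreated pooled human plasma after 2 h incubation, measured by butanol extraction and negative-mode MRM LC/MS/MS against calibration standards. IC50 from non-linear fit of inhibition versus concentration.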

The mark [1] stands for this setting: LPA 18:2 by LC/MS/MS, read-out: LPA formation (18:2) (IC50).
The mark [2] stands for this setting: LPA 20:4 by LC/MS/MS, read-out: LPA formation (20:4) (IC50).

We go through eight compounds from patent publication US10711000B2 (Fronthera U.S. Pharmaceuticals LLC, priority 2018, dated 2020).

Each structure is given as a SMILES string. Like-named read-outs stand apart in the source and are kept apart here.

Usually IC50 stands for the concentration that gives 50% inhibition. With `Cc1cc(N2CCC(N3CC(O)C3)CC2)cc2c(N(C)c3nc(-c4ccc(F)cc4)c(C#N)s3)c(C3CC3)nn12` [Example 93, 2-((2-cyclopropyl-5-(4-(3-hydroxyazetidin-1-yl)piperidin-1-yl)-7-methylpyrazolo[1,5-a]pyridin-3-yl)(methyl)amino)-4-(4-fluorophenyl)thiazole-5-carbonitrile], the half-maximal inhibitory concentration (IC50) runs as follows: under setting [1], 100 to 500 nM; under setting [2], 100 to 500 nM.
For `Cc1cc(N2CCC3(CN(C(=O)[C@H]4CCOC4)C3)C2)cc2c(N(C)c3nc(-c4ccc(F)cc4)c(C#N)s3)c(C3CC3)nn12` [Example 86, (S)-2-((2-cyclopropyl-7-methyl-5-(2-(tetrahydrofuran-3-carbonyl)-2,6-diazaspiro[3.4]octan-6-yl)pyrazolo[1,5-a]pyridin-3-yl)(methyl)amino)-4-(4-fluorophenyl)thiazole-5-carbonitrile], the IC50 by setting is: under setting [1], at most 100 nM; under setting [2], at most 100 nM.
Take `CCc1nn2cc(F)c(N3CC4(CN(C(=O)N5CC(O)C5)C4)C3)cc2c1N(C)c1nc(-c2ccc(F)cc2)c(C#N)s1` [Example 107, 2-((2-ethyl-6-fluoro-5-(6-(3-hydroxyazetidine-1-carbonyl)-2,6-diazaspiro[3.3]heptan-2-yl)pyrazolo[1,5-a]pyridin-3-yl)(methyl)amino)-4-(4-fluorophenyl)thiazole-5-carbonitrile]: the IC50 under setting [1] is at most 100 nM and the IC50 under setting [2] is at most 100 nM.
Regarding `CCc1nn2ccc(N3CCC4(CCN(C(=O)N5CC(O)C5)C4)C3)cc2c1N(C)c1nc(-c2ccc(F)cc2)c(C#N)s1` (stereo not shown) [Example 20, 2-((2-ethyl-5-(7-(3-hydroxyazetidine-1-carbonyl)-2,7-diazaspiro[4.4]nonan-2-yl)pyrazolo[1,5-a]pyridin-3-yl)(methyl)amino)-4-(4-fluorophenyl)thiazole-5-carbonitrile], the IC50 was at most 100 nM under setting [1] and at most 100 nM under setting [2].
On to `CCc1nn2c(C)cc(N3CC4(CN(C(=O)C(C)(C)O)C4)C3)cc2c1N(C)c1nc(-c2ccc(F)cc2)c(C#N)s1` [Example 30, 2-((2-ethyl-5-(6-(2-hydroxy-2-methylpropanoyl)-2,6-diazaspiro[3.3]heptan-2-yl)-7-methylpyrazolo[1,5-a]pyridin-3-yl)(methyl)amino)-4-(4-fluorophenyl)thiazole-5-carbonitrile], for which the IC50 by setting is: under setting [1], at most 100 nM; under setting [2], at most 100 nM.
On to `CCc1nn2cc(C)c(N3CCN(CC(=O)N4CC(O)C4)CC3)cc2c1N(C)c1nc(-c2ccc(F)cc2)c(C#N)s1` [Example 96, 2-((2-ethyl-5-(4-(2-(3-hydroxyazetidin-1-yl)-2-oxoethyl)piperazin-1-yl)-6-methylpyrazolo[1,5-a]pyridin-3-yl)(methyl)amino)-4-(4-fluorophenyl)thiazole-5-carbonitrile], for which the IC50 is at most 100 nM under setting [1] and at most 100 nM under setting [2].
`CCc1nn2c(C)cc(N3CCC4(CN(C(=O)N5CC(O)C5)C4)C3)cc2c1N(C)c1nc(-c2ccc(F)cc2)c(C#N)s1` [Example 36, 2-((2-ethyl-5-(2-(3-hydroxyazetidine-1-carbonyl)-2,6-diazaspiro[3.4]octan-6-yl)-7-methylpyrazolo[1,5-a]pyridin-3-yl)(methyl)amino)-4-(4-fluorophenyl)thiazole-5-carbonitrile]: the IC50 was at most 100 nM under setting [1] and at most 100 nM under setting [2].
On to `CCc1nn2c(C)cc(N3CCC4(CCN(C(=O)N5CC(O)C5)C4)CC3)cc2c1N(C)c1nc(-c2ccc(F)cc2)c(C#N)s1` [Example 37, 2-((2-ethyl-5-(2-(3-hydroxyazetidine-1-carbonyl)-2,8-diazaspiro[4.5]decan-8-yl)-7-methylpyrazolo[1,5-a]pyridin-3-yl)(methyl)amino)-4-(4-fluorophenyl)thiazole-5-carbonitrile], for which the IC50 by setting is: under setting [1], at most 100 nM; under setting [2], at most 100 nM.
